# Active and inactive are the calls of the source. No cut-off for these calls is given here.
# Experiments:
# [1] = Cytotoxicity against human renal cancer cells after 48 hrs by SRB assay; assay type: functional; settings: Cancer cell lines
# [2] = Cytotoxicity against human breast cancer cells after 48 hrs by SRB assay; assay type: functional; settings: Cancer cell lines
# [3] = Cytotoxicity against human colon cancer cells after 48 hrs by SRB assay; assay type: functional; settings: Cancer cell lines
# [4] = Cytotoxicity against human melanoma cells after 48 hrs by SRB assay; assay type: functional; settings: Melanoma cell; for CC50: read-out: LC50 (the source's name)
# [5] = test system: SK-MEL-5; assay: Cytotoxicity against human SK-MEL-5 cells assessed as cell growth at 10 uM after 48 hrs by SRB assay; assay type: functional; settings: SK-MEL-5, 48 h, read-out: Activity
# [6] = Cytotoxicity against human leukemia cells after 48 hrs by SRB assay; assay type: functional; settings: Leukemia cell; for CC50: read-out: LC50 (the source's name)
# [7] = Cytotoxicity against human CNS cancer cells after 48 hrs by SRB assay; assay type: functional; settings: Cancer cell lines
# [8] = Cytotoxicity against human ovarian cancer cells after 48 hrs by SRB assay; assay type: functional; settings: Cancer cell lines
# [9] = Cytotoxicity against human non-small cell lung cancer cells after 48 hrs by SRB assay; assay type: functional; settings: Cancer cell lines; for CC50: read-out: LC50 (the source's name)
# [10] = Cytotoxicity against human prostate cancer cells after 48 hrs by SRB assay; assay type: functional; settings: Cancer cell lines
# [11] = test system: CCRF-CEM; assay: Cytotoxicity against human CCRF-CEM cells assessed as cell growth at 10 uM after 48 hrs by SRB assay; assay type: functional; settings: read-out: Activity
# [12] = test system: Mus musculus; assay: Antitumor activity in ip dosed athymic nude mouse hollow fiber model assessed as reduction of viable cell mass; assay type: functional, organism-based
# [13] = test system: U-251; assay: Cytotoxicity against human U251 cells assessed as cell growth at 10 uM after 48 hrs by SRB assay; assay type: functional; settings: U-251, 48 h, read-out: Activity
# [14] = Toxicity in mouse; assay type: organism-based; settings: in vivo
# [15] = test system: OVCAR-4; assay: Cytotoxicity against human OVCAR4 cells assessed as cell growth at 10 uM after 48 hrs by SRB assay; assay type: functional; settings: OVCAR-4, 48 h, read-out: Activity
SMILES,GI50 [1] [µM],LC50 [1] [µM],TGI [1] [µM],GI50 [2] [µM],LC50 (concentration causing 50% net cell kill) [2] [µM],TGI [2] [µM],GI50 [3] [µM],LC50 (concentration lethal to 50% of cells) [3] [µM],TGI [3] [µM],GI50 [4] [µM],TGI [4] [µM],CC50 [4] [µM],GI50 [6] [µM],TGI [6] [µM],CC50 [6] [µM],GI50 [7] [µM],LC50 (concentration giving 50% net cell kill) [7] [µM],TGI [7] [µM],GI50 [8] [µM],LC50 (concentration causing 50% net cell kill) [8] [µM],also measured
O=C1N=C(N2N=C(c3ccccc3)CC2c2ccccc2O)S/C1=C1/C(=O)Nc2ccc(Br)cc21 (stereo unspecified),0.23,2.55,0.63,0.26,3.59,0.8,0.21,1.67,0.46,0.23,0.66,2.43,0.27,1.05,9.49,0.24,4.12,0.72,0.28,19,growth at 10 µM [5]: -53.9%; TGI [8]: 0.94 µM; GI50 [9]: 0.24 µM; TGI [9]: 0.67 µM; CC50 [9]: 7.24 µM; GI50 [10]: 0.29 µM; LC50 [10]: 7.68 µM; TGI [10]: 0.93 µM
COc1ccc(-c2cc(-c3ccc(Cl)cc3)n(C3C(=O)Nc4ccccc43)n2)cc1 (stereo unspecified),–,–,–,–,–,–,–,–,–,–,–,–,–,–,–,–,–,–,–,–,growth at 10 µM [11]: 75.6%
COc1ccc(C2=NN(C3=NC(=O)/C(=C4\C(=O)Nc5ccc(Br)cc54)S3)C(c3ccc(Cl)cc3)C2)cc1 (stereo unspecified),0.14,4,0.37,0.14,19.2,0.4,0.13,16.1,7.44,0.16,0.34,0.99,0.19,14,100,0.12,15.7,1.48,0.19,29.8,growth at 10 µM [5]: -56.4%; TGI [8]: 14.7 µM; GI50 [9]: 0.12 µM; TGI [9]: 0.34 µM; CC50 [9]: 12.4 µM; GI50 [10]: 0.18 µM; LC50 [10]: 100 µM; TGI [10]: 1.01 µM
COc1ccc(-c2cc(-c3ccc(Cl)cc3)n(C3C(=O)Nc4ccc(Br)cc43)n2)cc1 (stereo unspecified),9.2,62.1,32.3,8.1,65.8,24.6,7.2,78.8,36.3,13.2,49.3,81.1,12.3,67,100,5.48,46.5,16.7,9.75,64.8,growth at 10 µM [11]: 58.6%; TGI [8]: 28.7 µM; GI50 [9]: 7.53 µM; TGI [9]: 30 µM; CC50 [9]: 58.6 µM; GI50 [10]: 7.65 µM; LC50 [10]: 61.2 µM; TGI [10]: 22.1 µM
O=C(O)CN1C(=O)C(n2nc(-c3ccc4ccccc4c3)cc2-c2ccc(Cl)cc2)c2ccccc21 (stereo unspecified),–,–,–,–,–,–,–,–,–,–,–,–,–,–,–,–,–,–,–,–,growth at 10 µM [11]: 103%
O=C(O)CN1C(=O)C(n2nc(-c3ccccc3)cc2-c2ccc(Cl)cc2)c2ccccc21 (stereo unspecified),–,–,–,–,–,–,–,–,–,–,–,–,–,–,–,–,–,–,–,–,growth at 10 µM [11]: 97.7%
CN(C)c1ccc(C2CC(c3ccccc3)=NN2C2=NC(=O)/C(=C3\C(=O)Nc4ccc(Cl)cc43)S2)cc1 (stereo unspecified),0.19,15.3,0.43,0.22,2.32,0.53,0.19,16.5,0.41,0.26,0.57,2.16,0.34,3.11,100,0.19,1.63,0.43,0.24,48.8,growth at 10 µM [5]: -52.9%; TGI [8]: 0.62 µM; GI50 [9]: 0.21 µM; TGI [9]: 0.51 µM; CC50 [9]: 37.9 µM; GI50 [10]: 0.25 µM; LC50 [10]: 12.8 µM; TGI [10]: 0.69 µM
O=C1N=C(N2N=C(c3ccccc3)CC2c2ccc(Cl)cc2)S/C1=C1/C(=O)Nc2ccccc21 (stereo unspecified),0.27,22.1,0.85,0.32,39.4,0.91,0.19,0.81,0.39,0.28,0.54,1,0.37,70.8,100,0.19,2.07,0.5,0.23,26.7,growth at 10 µM [5]: -56.9%; TGI [8]: 0.65 µM; GI50 [9]: 0.23 µM; TGI [9]: 6.29 µM; CC50 [9]: 30 µM; GI50 [10]: 0.25 µM; TGI [10]: 0.85 µM
CN(C)c1ccc(C2CC(c3ccccc3)=NN2C2=NC(=O)/C(=C3\C(=O)Nc4ccccc43)S2)cc1 (stereo unspecified),6.37,43,18.8,5.26,57.3,20.2,2.55,40.4,35.3,6.9,29.4,43.9,33.9,45.6,94.8,1.11,41.6,3.24,1.22,47.1,Activity [12]: inactive; growth at 10 µM [13]: -39.6%; MTD [14]: > 400 mg/kg; TGI [8]: 39.7 µM; GI50 [9]: 7.42 µM; TGI [9]: 25.2 µM; CC50 [9]: 49 µM; GI50 [10]: 0.27 µM; LC50 [10]: 41.4 µM; TGI [10]: 34 µM
COc1ccc(-c2cc(-c3ccc(Cl)cc3)n(C3C(=O)Nc4ccc(Cl)cc43)n2)cc1 (stereo unspecified),3.75,42.4,13.2,6.29,47.6,17.8,6.15,69.4,28.6,9.4,46.7,76.4,27.9,79.2,100,3.94,42.2,14.4,3.68,52.3,growth at 10 µM [11]: 50.8%; TGI [8]: 14.7 µM; GI50 [9]: 4.37 µM; TGI [9]: 23.2 µM; CC50 [9]: 59.8 µM; GI50 [10]: 6.49 µM; LC50 [10]: 62.4 µM; TGI [10]: 20.3 µM
COc1ccc(-c2cc(-c3ccc4ccccc4c3)nn2C2C(=O)Nc3ccccc32)cc1 (stereo unspecified),–,–,–,–,–,–,–,–,–,–,–,–,–,–,–,–,–,–,–,–,growth at 10 µM [15]: 91.5%

# Source: ChEMBL document CHEMBL2169792, “Synthesis of new 4-thiazolidinone-, pyrazoline-, and isatin-based conjugates with promising antitumor activity” (J Med Chem, 2012)
